According to patent publication EP0138020B1, “Anti-adhesive prophylactica and medicines containing a secretolytically active benzylamine derivative” (priority 1983, dated 1985):
Counter-ions that a name gives are not always drawn.

Experiments:
[1] = tested on: Klebsiella pneumoniae Weingarten 14; experiment: In vivo lung infection: bacterial count in lung homogenate; details: relative to Tylose control = 100; treated 8-10 h before, 15 min before and 4-5 h after infection, preferably i.m. 20-40 mg/kg; lungs preferably 10 h after infection
Description: • a. Die Kultur der Bakterien erfolgt wie oben beschrieben, allerdings ohne radioaktive Markierung. • b. Weibliche Albino-Wistar Ratten oder weibliche SPF-Mäuse (Chbb:NMRI) werden i.p., i.v., i.m., p.o., vorzugsweise i.m. 8-10 Stunden vor, 15 Minuten vor und 4-5 Stunden nach der Infektion mit 2-200 mg, vorzugsweise 20-40 mg Benzylamin pro kg Körpergewicht bzw. Tylose (Kontrolle) behandelt. Die Bakteriensuspension (5 x 10⁸-10⁻⁹Bakterien/ml physiologischer Kochsalzlösung) wird in einer Vernebelungskammer mit 0,35 ml/ Minute über 10 Minuten vernebelt. Alternativ werden 10⁶ Keime in 0,05 ml physiologischer Kochsalzlösung i.n. in den Nasengang unter einer Inhalationsnarkose, z.B. mit Chloroform, appliziert. Jeweils ein Kollektiv von Tieren wird 1-10, vorzugsweise 10 Stunden nach der Infektion seziert, die Lungen steril entnommen und die Keime im Lungenhomogenat quantitativ durch Anzüchtung auf McConkey-Agar ermittelt. Die Bakterienkonzentration wird in Keimzahl/g Lunge bestimmt.

[2] = tested on: Klebsiella pneumoniae Weingarten 14 (Adhäsion an menschlichen Lungen-Epithelzellen ATCC, CCL5, L-132); experiment: Direct effect in vitro: adhesion of 14C-labelled bacteria to an epithelial cell monolayer; assay type: cell-based; details: L132, 3 h, pH 5, read-out: weniger Keime auf den Epithelzellen im Vergleich zur Kontrolle
From the text: • a. Der Titer der lebenden Zellen, z.B. von menschlichen Lungen-Epithelzellen wie ATCC, CCL5, L-132, - zu denen nachgewiesenerweise die Verbindungen der obigen allgemeinen Formel I eine sehr hohe Affinität aufweisen, die mit der zum intakten Organ vergleichbar ist - wird mittels Vitalfärbung mit Trypan blue und Auszählung in einer Fuchs-Rosenthal-Zählkammer bestimmt und durch Verdünnung mit Kulturmedium, z.B. Minimum Essential Medium plus 10 % fötales Kälberserum plus 0,1 % Kanamycin, auf 7 x 10⁴ Zellen/ml eingestellt. Je 3 ml dieser Suspension werden in Glasszintillationsfläschchen gefüllt, die durch eine übliche Behandlung für die Anheftung der Epithelzellen auf die Glasoberfläche vorbereitet wurden. Die Inkubation bis zur Ausbildung eines geschlossenen Monolayers erfolgt über 3 Tage bei 37°C und 3 % CO₂. Ein Monolayer entspricht 5 x 10⁶ Zellen pro Szintillationsfläschchen. • b. Die Bakterien, z.B. Klebsiella pneumoniae Weingarten 14, werden in zwei Passagen von je 24 Stunden bei 37° C in Brain Heart Infusion Broth (BHJ) bis zur logarithmischen Wachstumsphase gezüchtet. Während der 2. Passage erfolgt die radioaktive Markierung durch die Zugabe von 1,2-¹⁴C-Azetat zum Nährmedium. Danach wird die Kultur zur Entfernung nichtinkorporierter Radioaktivität zweimal mit PBS (Phosphate buffered saline) gewaschen. […]

[3] = Acute oral toxicity (LD50); details: mouse, in vivo, Maus, p.o., read-out: LD₅₀
From the text: Die Verbindungen der obigen allgemeinen Formel I und deren physiologisch verträgliche Säureadditionssalze sind untoxisch und somit gut verträglich. So weist beispielsweise an der Maus • N-Methyl-N-(2-amino-3,5-dibrom-benzyl)-cyclohexylaminhydrochlorid eine LD₅₀ von >10 g/kg p.o., • N-(2-Amino-3,5-dibrom-benzyl)-trans-4-hydroxy-cyclohexylaminhydrochlorid eine von 2,72 g/kg p.o. und • die übrigen Verbindungen eine von >1 g/kg p.o. auf.

[4] = tested on: Klebsiella pneumoniae Weingarten 14 (Adhäsion an menschlichen Lungen-Epithelzellen ATCC, CCL5, L-132); experiment: Indirect effect ex vivo: bacterial adhesion to epithelial cells after incubation with lung lavage fractions from treated rats; assay type: cell-based; details: rats 25 mg/kg p.o. over 5 days, vs Tylose control animals
From the text: • a. Der Titer der lebenden Zellen, z.B. von menschlichen Lungen-Epithelzellen wie ATCC, CCL5, L-132, - zu denen nachgewiesenerweise die Verbindungen der obigen allgemeinen Formel I eine sehr hohe Affinität aufweisen, die mit der zum intakten Organ vergleichbar ist - wird mittels Vitalfärbung mit Trypan blue und Auszählung in einer Fuchs-Rosenthal-Zählkammer bestimmt und durch Verdünnung mit Kulturmedium, z.B. Minimum Essential Medium plus 10 % fötales Kälberserum plus 0,1 % Kanamycin, auf 7 x 10⁴ Zellen/ml eingestellt. Je 3 ml dieser Suspension werden in Glasszintillationsfläschchen gefüllt, die durch eine übliche Behandlung für die Anheftung der Epithelzellen auf die Glasoberfläche vorbereitet wurden. Die Inkubation bis zur Ausbildung eines geschlossenen Monolayers erfolgt über 3 Tage bei 37°C und 3 % CO₂. Ein Monolayer entspricht 5 x 10⁶ Zellen pro Szintillationsfläschchen. • b. Die Bakterien, z.B. Klebsiella pneumoniae Weingarten 14, werden in zwei Passagen von je 24 Stunden bei 37° C in Brain Heart Infusion Broth (BHJ) bis zur logarithmischen Wachstumsphase gezüchtet. Während der 2. Passage erfolgt die radioaktive Markierung durch die Zugabe von 1,2-¹⁴C-Azetat zum Nährmedium. Danach wird die Kultur zur Entfernung nichtinkorporierter Radioaktivität zweimal mit PBS (Phosphate buffered saline) gewaschen. Mit PBS pH 5,5 wird die Kultur im Photometer auf eine Transmission von 35 % eingestellt, was durch Ermittlung der Lebendkeimzahl einem Titer von 5 x 10⁸ Bakterien/ml entspricht. • c. Die Bakterien-Kultur wird abzentrifugiert, PBS abgenommen und durch ein gleiches Volumen Benzylamin-Lösung in PBS pH 5,5 ersetzt. Für den Kontrollwert wird statt der Benzylamin-Lösung PBS pH 5,5 verwendet. Das Nährmedium der Zellen wird abgenommen, der Monolayer (= 5 x 10⁶ Zellen) wird zweimal mit PBS pH 5,5 gespült und mit 1 ml Bakterien-Benzylamin-Lösung (= 5 x 10⁸ Bakterien) überschichtet. Die Inkubation erfolgt 3 Stunden bei 37° C. Danach wird die Bakterien-Benzylamin-Lösung abgenommen und der Monolayer zur Entfernung nicht-adhärenter Bakterien zweimal mit PBS pH 5,5 gespült. Nach Zugabe von Instagel wird die Radioaktivität der gebundenen Bakterien im Szintillationszähler gemessen. • d. Ergebnis: Mit der Verbindung A (50 |g/ml) wurden im Vergleich zur Kontrolle 15 % weniger Keime auf den Epithelzellen nachgewiesen, mit der Verbindung B (50 |g/ml) 20 %.
• a. Die Kultur der Epithelzellen erfolgt wie oben beschrieben. • b. Die Kultur der Bakterien erfolgt wie oben beschrieben. • c. Männliche SPF-Ratten (Chbb:THOM) werden über 5 Tage p.o. mit 25 mg Benzylamin pro kg Körpergewicht bzw. mit Tylose (Kontrolle) behandelt. Durch Bronchoalveolar-Lavage mit isotoner Harnstofflösung wird das Lungenwaschwasser gewonnen und gepoolt. 100 ml davon werden mittels präparativer Isoelektrofokussierung in 30 proteinhaltige Gelfraktionen aufgetrennt. Nach Bestimmung des isoelektrischen Punktes der einzelnen Fraktionen mit einer Oberflächen-Elektrode werden die Proteine mit 3 ml PBS pH 5,5 pro Fraktion vom Gel eluiert. Die 30 Fraktionen werden auf pH 5,5 eingestellt. • d. Die Bakterienkultur wird abzentrifugiert, PBS abgenommen und durch ein gleiches Volumen Lungenwaschwasserfraktion ersetzt. Für den Kontrollwert wird statt der Lungenwaschwasserfraktionen PBS pH 5,5 und isotone Harnstofflösung verwendet. Nach einer Inkubation von 2 Stunden bei 37° C wird die Bakterienkultur erneut abzentrifugiert, Lungenwaschwasserfraktionen bzw. PBS bzw. Harnstoff abgenommen und durch ein gleiches Volumen PBS pH 5,5 ersetzt. Das Nährmedium der Zellen wird abgenommen, der Monolayer (= 5 x 10⁶ Zellen) wird zweimal mit PBS pH 5,5 gespült und mit 1 ml Bakteriensuspension (= 5 x 10⁸ Bakterien) überschichtet. Die Inkubation erfolgt 2 Stunden bei 37° C Danach wird die Bakteriensuspension abgenommen und der Monolayer zur Entfernung nicht-adhärenter Bakterien zweimal mit PBS pH 5,5 gespült. Nach Zugabe von Instagel wird die Radioaktivität der gebundenen Bakterien im Szintillationszähler gemessen. • e. […]

Row | Compound | % Keimzahl/g Lunge [1] | inhibition at 50 µg/mL [2] | LD50 [3] | % Hemmung der Adhäsivität ([4]; Isoelektrischer Punkt der Lungenwaschwasserfraktion 4,0) | % Hemmung der Adhäsivität ([4]; Isoelektrischer Punkt der Lungenwaschwasserfraktion 4,4) | % Hemmung der Adhäsivität ([4]; Isoelektrischer Punkt der Lungenwaschwasserfraktion 4,9) | % Hemmung der Adhäsivität ([4]; Isoelektrischer Punkt der Lungenwaschwasserfraktion 5,2) | % Hemmung der Adhäsivität ([4]; Isoelektrischer Punkt der Lungenwaschwasserfraktion 5,8) | % Hemmung der Adhäsivität ([4]; Isoelektrischer Punkt der Lungenwaschwasserfraktion 6,7) | % Hemmung der Adhäsivität ([4]; Isoelektrischer Punkt der Lungenwaschwasserfraktion 7,6) | % Hemmung der Adhäsivität ([4]; Isoelektrischer Punkt der Lungenwaschwasserfraktion 8,6)
1 | CN(Cc1cc(Br)cc(Br)c1N)C1CCCCC1 [Verbindung A, N-Methyl-N-(2-amino-3,5-dibrom-benzyl)-cyclohexylaminhydrochlorid] | 49% | 15% | > 10000 mg/kg | – | – | – | – | – | – | – | –
2 | Nc1c(Br)cc(Br)cc1CN[C@H]1CC[C@H](O)CC1 [Verbindung B, N-(2-Amino-3,5-dibrom-benzyl)-trans-4-hydroxy-cyclohexylamin-hydrochlorid] | 31% | 20% | 2720 mg/kg | 73% | 65% | 65% | 61% | 39% | 67% | 79% | 72%
